Data reported in patent US20090087845A1, “Genetic Markers Of True Low Birth Weight” (priority 2005, published 2009).

Test system: placental gene expression
[1] = rat placenta, 0, 5%, 10% in drinking water
[2] = rat placenta, 5% in drinking water throughout pregnancy
[3] = rat placenta, 5% or 10% in drinking water throughout pregnancy, p<0.05 in both t-tests
[4] = rat placenta, 10% in drinking water throughout pregnancy

Compound: CCO [alcohol]
- Mean 10%, Pex6 (1368264_at) (10% alcohol group, Mean Contr 6.259265): 5.303
- Mean 10%, St3gal3 (1373607_at) (10% alcohol group, Mean Contr 6.298338): 5.59
- Mean 10%, Kbtbd4_predicted (1374614_at) (10% alcohol group, Mean Contr 6.314496): 5.325
- Mean 10%, Phyh (1393245_at) (10% alcohol group, Mean Contr 6.483711): 5.227
- Mean 10%, LOC287533 (1373627_at) (10% alcohol group, Mean Contr 6.526312): 5.351
- Mean 10%, Transcribed locus (1388465_at) (10% alcohol group, Mean Contr 6.549543): 5.667
- Mean 10%, Mss4 (1376745_at) (10% alcohol group, Mean Contr 6.629539): 5.49
- Mean 10%, Plag1 (1391714_at) (10% alcohol group, Mean Contr 6.670053): 5.554
- Mean 10%, Sumf1_predicted (1389833_at) (10% alcohol group, Mean Contr 6.839621): 5.774
- Mean 10%, Polr3e_predicted (1374415_at) (10% alcohol group, Mean Contr 6.849002): 5.78
- Mean 10%, RGD1308959 (1399108_at) (10% alcohol group, Mean Contr 6.859582): 5.829
- Mean 10%, Wig1 (1387021_at) (10% alcohol group, Mean Contr 6.895168): 5.95
- Mean 10%, probe set 1379314_at (10% alcohol group, Mean Contr 6.970231): 5.514
- Mean 10%, Ddx59 (1383635_at) (10% alcohol group, Mean Contr 6.981191): 6.018
- Mean 10%, Rnd3 (1394077_at) (10% alcohol group, Mean Contr 7.018906): 6.069
- Mean 10%, probe set 1393037_at (10% alcohol group, Mean Contr 7.020197): 6.384
- Mean 10%, Slc39a4_predicted (1374366_at) (10% alcohol group, Mean Contr 7.252498): 5.652
- Mean 10%, RGD1305243_predicted (1374076_at) (10% alcohol group, Mean Contr 7.300542): 6.175
- Mean 10%, Transcribed locus (1393310_at) (10% alcohol group, Mean Contr 7.364799): 5.834
- Mean 10%, Gusb (1367901_at) (10% alcohol group, Mean Contr 7.420203): 6.432
- Mean 10%, probe set 1392953_at (10% alcohol group, Mean Contr 7.435411): 6.103
- Mean 10%, Crsp9_predicted (1377263_at) (10% alcohol group, Mean Contr 7.471023): 5.974
- Mean 10%, probe set 1389582_at (10% alcohol group, Mean Contr 7.588214): 6.297
- Mean 10%, Transcribed locus (1393226_at) (10% alcohol group, Mean Contr 7.705027): 6.077
- Mean 10%, RGD1565289_predicted (1375297_at) (10% alcohol group, Mean Contr 7.731478): 6.615
- Mean 10%, Zfp207 (1394591_at) (10% alcohol group, Mean Contr 8.125942): 6.769
- Mean 10%, Akr7a2 (1367843_at) (10% alcohol group, Mean Contr 8.276972): 6.866
- Mean 10%, Tparl (1373392_at) (10% alcohol group, Mean Contr 8.308305): 7.589
- Mean 10%, Mcts1 (1388660_at) (10% alcohol group, Mean Contr 8.623529): 7.771
- Mean 10%, Hadhsc (1370237_at) (10% alcohol group, Mean Contr 8.793343): 8.015
- Mean 10%, Asah1 (1374770_at) (10% alcohol group, Mean Contr 9.074708): 7.952
- Mean 10%, Arts1 (1368356_a_at) (10% alcohol group, Mean Contr 9.55972): 8.725
- Mean 10%, Ndufb5_predicted (1388304_at) (10% alcohol group, Mean Contr 10.12286): 9.267
- Mean 10%, MGC72992 (1389325_at) (10% alcohol group, Mean Contr 10.24563): 9.571
- Mean 10%, Vps35_mapped (1372806_at) (10% alcohol group, Mean Contr 10.46183): 9.969
- sig down and spec alc, Arts1 (1368356_a_at) (contr vs 5% vs 10% alcohol): YES
- sig down and spec alc, Cdca7 (1374540_at) (contr vs 5% vs 10% alcohol): YES
- sig down and spec alc, Centa2 (1369725_at) (contr vs 5% vs 10% alcohol): YES
- sig down and spec alc, Crsp9_predicted (1377263_at) (contr vs 5% vs 10% alcohol): YES
- sig down and spec alc, Cul2_predicted (1378127_at) (contr vs 5% vs 10% alcohol): YES
- sig down and spec alc, Ddx59 (1383635_at) (contr vs 5% vs 10% alcohol): YES
- sig down and spec alc, Ggps1 (1377866_a_at) (contr vs 5% vs 10% alcohol): YES
- sig down and spec alc, Gusb (1367901_at) (contr vs 5% vs 10% alcohol): YES
- sig down and spec alc, Hadhsc (1370237_at) (contr vs 5% vs 10% alcohol): YES
- sig down and spec alc, Mcpt6 (1387334_at) (contr vs 5% vs 10% alcohol): YES
- sig down and spec alc, Ndufb5_predicted (1388304_at) (contr vs 5% vs 10% alcohol): YES
- sig down and spec alc, Pex6 (1368264_at) (contr vs 5% vs 10% alcohol): YES
- sig down and spec alc, Prdm2_mapped (1381229_at) (contr vs 5% vs 10% alcohol): YES
- sig down and spec alc, RGD1305243_predicted (1374076_at) (contr vs 5% vs 10% alcohol): YES
- sig down and spec alc, RGD1565289_predicted (1375297_at) (contr vs 5% vs 10% alcohol): YES
- sig down and spec alc, Tparl (1373392_at) (contr vs 5% vs 10% alcohol): YES
- sig down and spec alc, Transcribed locus (1377021_at) (contr vs 5% vs 10% alcohol): YES
- sig down and spec alc, Trp53rk_predicted (1379488_at) (contr vs 5% vs 10% alcohol): YES
- sig down and spec alc, Vps35_mapped (1372806_at) (contr vs 5% vs 10% alcohol): YES
- number of placental genes down-regulated after excluding genes overlapping with caloric restriction, high fat diet and SSRI (rat placenta): 35 genes
- number of placental genes up-regulated after excluding genes overlapping with caloric restriction, high fat diet and SSRI (rat placenta): 7 genes
- placental expression of TP53 regulating kinase (Trp53rk) [1]: down-regulated
- placental expression of Zinc finger protein 365 (Zfp365) [1]: up-regulated
- placental expression of cell division cycle associated 7 (Cdca7) [1]: down-regulated
- placental expression of inositol polyphosphate-1-phosphatase (Inpp1) [1]: down-regulated
- placental expression of peroxisomal biogenesis factor 6 (Pex6) [1]: down-regulated
- placental expression of pleckstrin (Plek) [1]: down-regulated
- Mean 5% expression, probe set 1370527_a_at (casein kinase 1, delta, Csnk1d) [2]: 9.839
- Mean 5% expression, probe set 1380351_at [2]: 4.282
- Mean 5% expression, probe set 1381613_at (Transcribed locus) [2]: 4.29
- Mean 5% expression, probe set 1384272_at (Zinc finger protein 365, Zfp365) [2]: 4.227
- Mean 5% expression, probe set 1384691_at (Transcribed locus, weakly similar to XP_577161.1) [2]: 4.65
- Mean 5% expression, probe set 1384793_at [2]: 4.485
- Mean 5% expression, probe set 1388932_at (laminin, alpha 5, Lama5) [2]: 9.683
- Mean 5% expression, probe set 1391879_at (Transcribed locus) [2]: 4.547
- number of probe sets up-regulated (0<5%<10% pattern) [3]: 8 probe sets
- number of probe sets with reduced expression in exposed animals (0>5%>10% pattern) [3]: 57 probe sets
- Mean 10% expression, probe set 1370527_a_at (casein kinase 1, delta, Csnk1d) [4]: 10.03
- Mean 10% expression, probe set 1380351_at [4]: 4.908
- Mean 10% expression, probe set 1381613_at (Transcribed locus) [4]: 4.634
- Mean 10% expression, probe set 1384272_at (Zinc finger protein 365, Zfp365) [4]: 4.517
- Mean 10% expression, probe set 1384691_at (Transcribed locus, weakly similar to XP_577161.1) [4]: 5.112
- Mean 10% expression, probe set 1384793_at [4]: 4.761
- Mean 10% expression, probe set 1388932_at (laminin, alpha 5, Lama5) [4]: 9.897
- Mean 10% expression, probe set 1391879_at (Transcribed locus) [4]: 4.937
